In patent US12540137B2, “N-1 branched alkyl ether substituted imidazo[4,5-c]quinoline compounds, compositions, and methods” (Solventum Intellectual Properties Company, priority 2018, dated 2026):

Tests used:
human TLR7 = molecular target: T1, human TLR7 (Homo sapiens, UniProt Q9NYK1); assay: TLR activation, HEK-BLUE-hTLR7 SEAP reporter cells; type: cell-based; conditions: 16-20 hours, SEAP response at least 2× vehicle control, tested 0.01-30 micromolar
T1 construct: host or cells: HEK293 (HEK-BLUE-hTLR7)
T1 sequence (Q9NYK1 27-1049): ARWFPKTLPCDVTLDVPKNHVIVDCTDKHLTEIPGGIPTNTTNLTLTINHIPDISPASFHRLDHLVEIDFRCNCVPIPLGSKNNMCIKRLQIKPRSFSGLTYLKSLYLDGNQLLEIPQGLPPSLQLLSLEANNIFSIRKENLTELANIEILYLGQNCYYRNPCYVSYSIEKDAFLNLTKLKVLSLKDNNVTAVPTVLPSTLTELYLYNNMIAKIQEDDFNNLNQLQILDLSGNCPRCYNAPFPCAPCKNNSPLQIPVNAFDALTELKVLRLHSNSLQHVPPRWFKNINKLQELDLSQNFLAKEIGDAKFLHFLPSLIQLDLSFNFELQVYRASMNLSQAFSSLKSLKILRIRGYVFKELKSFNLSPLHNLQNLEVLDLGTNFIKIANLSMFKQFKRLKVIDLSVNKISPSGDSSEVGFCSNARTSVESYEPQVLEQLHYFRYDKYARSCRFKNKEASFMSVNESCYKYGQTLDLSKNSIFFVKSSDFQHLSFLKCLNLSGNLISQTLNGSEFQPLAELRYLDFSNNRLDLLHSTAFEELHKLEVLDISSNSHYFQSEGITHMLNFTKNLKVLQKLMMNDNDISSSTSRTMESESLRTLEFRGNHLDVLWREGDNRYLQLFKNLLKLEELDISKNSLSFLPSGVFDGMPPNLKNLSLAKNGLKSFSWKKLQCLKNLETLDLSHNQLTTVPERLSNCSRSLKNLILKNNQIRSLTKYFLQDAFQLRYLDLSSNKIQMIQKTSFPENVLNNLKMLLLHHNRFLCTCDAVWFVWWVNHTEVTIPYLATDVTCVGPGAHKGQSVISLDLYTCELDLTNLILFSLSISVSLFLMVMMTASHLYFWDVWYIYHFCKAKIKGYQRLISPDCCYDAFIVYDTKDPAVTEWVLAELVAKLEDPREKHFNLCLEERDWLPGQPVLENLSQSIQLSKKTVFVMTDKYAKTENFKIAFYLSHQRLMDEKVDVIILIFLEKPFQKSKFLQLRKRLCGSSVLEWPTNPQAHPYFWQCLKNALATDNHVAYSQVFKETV
Description: (§1) HEK-BLUE-hTLR7 or hTLR8 reporter cells were obtained from InvivoGen, San Diego, CA. According to the manufacturer's description, these reporter cells were prepared by co-transfection of HEK293 cells with an inducible secreted embryonic alkaline phosphatase (SEAP) reporter gene and either the human TLR7 or TLR8 gene. The SEAP reporter gene was placed under the control of an IFN−β minimal promoter fused to five NF-κB and AP-1-binding sites. In the presence of a TLR ligand, activation of NF-κB and AP-1 occurs, resulting in a corresponding increase in SEAP levels.
(§2) In the assay, the HEK cells were grown and maintained using standard cell culture techniques in a growth medium that contained Dulbecco's Modified Eagle Medium (ThermoFisher Scientific Incorporated, Waltham, MA) supplemented with 1% penicillin/streptomycin and 10% heat-inactivated Gibco fetal bovine serum (ThermoFisher Scientific). Each compound was solubilized in DMSO to create a 3 mM stock solution. The stock solution was then further diluted with the growth medium to prepare serial dilutions. Each test compound was tested at a concentration of 30, 10, 3.3, 1.1, 0.37, 0.12, 0.04, and 0.01 micromolar using a 96-well format with 5×10^4 cells and 200 microliters of growth medium per well.
(§3) For each compound, hTLR7, hTLR8, and their respective null control HEK cells were screened. DMSO serially diluted into the growth medium served as the vehicle control. Cell culture supernatants containing the SEAP reporter were collected after an incubation period of 16-20 hours in a cell culture incubator (37° C. and 5% CO2), and either analyzed immediately or stored at −80° C. SEAP levels were measured using the colorimetric enzyme assay (QUANTI-BLUE (InvivoGen) according to manufacturer's instructions.
(§4) Specifically, the minimum effective concentration of each compound (micromolar) was determined as the lowest concentration of the compound that produced a SEAP expression response at least 2× greater than that observed with the vehicle control wells.

human TLR8 = molecular target: T2, human TLR8 (Homo sapiens, UniProt Q9NR97); assay: TLR activation, HEK-BLUE-hTLR8 SEAP reporter cells; type: cell-based; conditions: 16-20 hours, SEAP response at least 2× vehicle control, tested 0.01-30 micromolar
T2 construct: host or cells: HEK293 (HEK-BLUE-hTLR8)
T2 sequence (Q9NR97 27-1041): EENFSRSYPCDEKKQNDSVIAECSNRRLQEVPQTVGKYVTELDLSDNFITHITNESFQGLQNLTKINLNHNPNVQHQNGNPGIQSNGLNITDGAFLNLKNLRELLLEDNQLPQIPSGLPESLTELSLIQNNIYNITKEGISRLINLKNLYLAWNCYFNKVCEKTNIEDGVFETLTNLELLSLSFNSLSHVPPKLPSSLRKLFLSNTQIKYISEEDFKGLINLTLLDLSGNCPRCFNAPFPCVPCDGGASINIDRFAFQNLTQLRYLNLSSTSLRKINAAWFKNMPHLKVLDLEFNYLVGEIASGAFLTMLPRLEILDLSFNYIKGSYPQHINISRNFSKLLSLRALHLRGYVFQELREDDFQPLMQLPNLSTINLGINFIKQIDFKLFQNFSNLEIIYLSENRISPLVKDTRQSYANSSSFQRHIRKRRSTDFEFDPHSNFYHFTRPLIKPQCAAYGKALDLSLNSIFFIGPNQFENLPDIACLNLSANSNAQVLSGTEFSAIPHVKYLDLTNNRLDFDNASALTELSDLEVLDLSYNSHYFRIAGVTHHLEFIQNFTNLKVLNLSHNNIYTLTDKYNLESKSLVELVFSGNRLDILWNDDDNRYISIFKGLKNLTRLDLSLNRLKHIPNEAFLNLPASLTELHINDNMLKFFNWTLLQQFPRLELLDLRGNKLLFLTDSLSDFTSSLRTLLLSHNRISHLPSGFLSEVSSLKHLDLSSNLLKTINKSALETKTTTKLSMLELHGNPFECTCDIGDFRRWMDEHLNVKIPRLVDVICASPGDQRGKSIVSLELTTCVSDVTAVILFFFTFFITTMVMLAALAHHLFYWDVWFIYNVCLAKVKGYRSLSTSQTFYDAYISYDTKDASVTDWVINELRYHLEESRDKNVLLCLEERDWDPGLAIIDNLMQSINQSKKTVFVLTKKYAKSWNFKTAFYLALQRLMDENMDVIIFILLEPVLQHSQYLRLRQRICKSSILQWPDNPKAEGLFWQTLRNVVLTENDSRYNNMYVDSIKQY
Description: as §1, §2, §3, §4

SMILES	MEC to Produce TLR Activation TLR 7 (human TLR7) [µM]	MEC to Produce TLR Activation TLR 8 (human TLR8) [µM]
COC[C@@H](n1cnc2c(N)nc3ccccc3c21)C(C)(C)C [Example 11, 1-[(1S)-1-(methoxymethyl)-2,2-dimethyl-propyl]imidazo[4,5-c]quinolin-4-amine]	0.04	>30
CCOC[C@H](n1cnc2c(N)nc3ccccc3c21)C(C)(C)C [Example 10, 1-[(1R)-1-(ethoxymethyl)-2,2-dimethyl-propyl]imidazo[4,5-c]quinolin-4-amine]	30	>30
CCOC[C@H](C(C)C)n1cnc2c(N)nc3ccccc3c21 [Example 1, 1-[(1S)-1-(ethoxymethyl)-2-methyl-propyl]imidazo[4,5-c]quinolin-4-amine]	0.12	30
CCOC[C@@H](C(C)C)n1c(C)nc2c(N)nc3ccccc3c21 [Example 4, 1-[(1R)-1-(ethoxymethyl)-2-methyl-propyl]-2-methyl-imidazo[4,5-c]quinolin-4-amine]	>30	>30
CCOC[C@@H](n1cnc2c(N)nc3ccccc3c21)C(O)(CC)CC [Example 12, (2R)-2-(4-aminoimidazo[4,5-c]quinolin-1-yl)-1-ethoxy-3-ethyl-pentan-3-ol]	0.04	30
CCO[C@@H](C)[C@@H](n1cnc2c(N)nc3ccccc3c21)C(C)(C)O [Example 13, (3R,4S)-3-(4-aminoimidazo[4,5-c]quinolin-1-yl)-4-ethoxy-2-methyl-pentan-2-ol]	3.3	10
CCOC[C@@H](n1c(C)nc2c(N)nc3ccccc3c21)C(C)(C)O [Example 7, (3R)-3-(4-amino-2-methyl-imidazo[4,5-c]quinolin-1-yl)-4-ethoxy-2-methyl-butan-2-ol]	0.37	1.1
CCOC[C@H](C(C)C)n1c(C)nc2c(N)nc3ccccc3c21 [Example 3, 1-[(1S)-1-(ethoxymethyl)-2-methyl-propyl]-2-methyl-imidazo[4,5-c]quinolin-4-amine]	1.1	30
CCOC[C@@H](C(C)C)n1cnc2c(N)nc3ccccc3c21 [Example 2, 1-[(1R)-1-(ethoxymethyl)-2-methyl-propyl]imidazo[4,5-c]quinolin-4-amine]	3.3	>30
CCOC[C@H](n1cnc2c(N)nc3ccccc3c21)C(C)(C)O [Example 6, (3S)-3-(4-aminoimidazo[4,5-c]quinolin-1-yl)-4-ethoxy-2-methyl-butan-2-ol]	>30	>30
CCOC[C@@H](n1cnc2c(N)nc3ccccc3c21)C(C)(C)C [Example 9, 1-[(1S)-1-(ethoxymethyl)-2,2-dimethyl-propyl]imidazo[4,5-c]quinolin-4-amine]	≤0.01	30
CCOC[C@@H](n1cnc2c(N)nc3ccccc3c21)C(C)(C)O [Example 5, (3R)-3-(4-aminoimidazo[4,5-c]quinolin-1-yl)-4-ethoxy-2-methyl-butan-2-ol]	≤0.01	3.3
CCOC[C@@H](n1c(CC)nc2c(N)nc3ccccc3c21)C(C)(C)O [Example 8, (3R)-3-(4-amino-2-ethyl-imidazo[4,5-c]quinolin-1-yl)-4-ethoxy-2-methyl-butan-2-ol]	10	10
